Measured values: patent publication US4126686A, “Analgesic 3-(3-methyl-3-butenyl)-1,2,3,4,5,6-hexahydro-6,11-dimethyl-8-hydroxy-2,6 -methano-3-benzazocine” (priority 1976, dated 1978)
Read-outs that look alike come from different tables or passages of the source.

How the values were obtained:
[1] = system: male mice of the dd strain; experiment: animal or person; assay type: in vivo, mouse (male; details: tail flick, mouse, subcutaneous administration
Description: (II) Analgesic activity by Tail Flick method:
The experiment is carried out according to the method of Tail Flick (D'Amour-Smith method) [J. Pharmacol., 72, 74 (1941)].
A light beam of an infrared lamp (100 V; 250W) is passed through a hole having a diameter of a half inch and is irradiated onto the end of the tail of each mouse (male dd strain; weight: 19-21 g) to effect a heat stimulation. […] The compound of formula (I), pentazocine or morphine is administered subcutaneously to the mice. At 15, 30, 60, 90 and 120 minutes after the administration, the heat stimulation is repeatedly carried out to the mice in a similar manner to that described above and after each heat stimulation the time until the flick reaction occurs is measured. […] ED50 is calculated according to the above-mentioned method of Litchfield and Wilcoxon.

[2] = Margin of safety (R = LD50/ED50), acetic acid writhing, mouse; details: in vivo
Description: (§1) The LD50 is calculated according to the method of Litchfield and Wilcoxon [J. of Pharmacol. and Exper. Therap., 96, 99 (1949)]. Male mice of the dd strain weighing 19-21 g and male rats of the Wistar strain weighing 80-100 g are used. One group consists of 10 mice or 10 rats. The compound of formula (I) and pentazocine are administered subcutaneously or orally to the test animals which are observed for one week.
(§2) Male mice of the dd strain weighing 19-21 g are used in groups, each consisting of 10 mice. The test compounds, i.e. the compound of formula (I), pentazocine and morphine are administered subcutaneously or orally to the test mice. Immediately after this, 0.2 ml of a 0.7% (v/v) aqueous solution of acetic acid is administered intraperitoneally to the test mice except those which has been administered orally with morphine, to which 0.2 ml of a 0.7% (v/v) aqueous solution of acetic acid is administered intraperitoneally at 15 minutes after a morphine administration. The mice of a control group are not administered with the test compounds but with only the acetic acid solution in a similar manner to that described above. At 10 minutes after the administration of acetic acid, the number of writhes is counted for 10 minutes. When the writhing numbers of the test group decrease to below 50% of the corresponding numbers of the control group, the test compound is determined to be analgesically active. ED50 is calculated according to the method of Litchfield and Wilcoxon [J. Pharmacol. & Exper. Therap., 96, 99 (1949)].
The usefulness of the compound as medicament is expressed by margin of safety (R) of the compound which is calculated by (LD50 /ED50). Compounds having higher R are deemed to be more useful as medicament than those having lower R. The margins of safety of the compound of formula (I) and pentazocine are shown in Table 6.

[3] = system: male rats of the Wistar strain; experiment: Analgesic activity by bradykinin method; assay type: in vivo, rat (male; details: rat
Description: (IV) Analgesic activity by bradykinin method:
The experiment is carried out according to the method of Abe et al [Nihon Yakuri Gakkai Si (J. Japanese Pharmacological Academy) 67, 9 (1971)].
(§3) In this experiment, male rats of the Wistar strain weighing 210-260 g were used in groups, each consisting of 10 rats. A cannula is inserted into the right carotid artery of the rat anesthetized with ether. After recovering completely from ether anesthesis, 0.2 ml of a physiological salt solution containing bradykinin in an amount of about 2 μg/ml is injected retrogradely to the rat through the cannula. […] The compound of formula (I), pentazocine or morphine is administered subcutaneously or orally to the rat. At 15, 30, 60, 90 and 120 minutes after the administration of the test compound, bradykinin is injected repeatedly to the rat in a similar manner to that described above. […] ED50 is calculated according to the method of Litchfield and Wilcoxon [J. Pharmacol. & Exper. Therap., 96, 99 (1949 )].

[4] = Analgesic activity compared with pentazocine (general statement); assay type: in vivo; details: in words
[5] = system: male mice of the dd strain; experiment: Analgesic activity by tail pinch method; assay type: in vivo, mouse (male; details: mouse
Description: (III) Analgesic activity by tail pinch method:
The experiment is carried out according to the method of H. Takagi et al [Jap. J. Pharmacol., 16, 287 (1966)].
In this experiment, male mice of the dd strain weighing 19-21 g are used in groups, each consisting of 10 mice. Before the experiment, animals which are sensitive to pressure stimulation are selected in the following manner.
The compound of formula (I), pentazocine or morphine is administered subcutaneously or orally to the selected mice. At 15, 30, 60, 90, and 120 minutes after the administration, an artery clip is repeatedly applied to the root of the tail of each mouse. […] ED50 is calculated according to the method of Litchfield and Wilcoxon [J. Pharmacol. & Exper. Therap., 96, 99 (1949)].

[6] = Margin of safety (R = LD50/ED50), bradykinin, rat; details: in vivo, sc, S.C. in rat
Description: as §1, §3
The usefulness of the compound as medicament is expressed by margin of safety (R) of the compound which is calculated by (LD50 /ED50). […]

[7] = Acute toxicity (LD50) in mice; design: species or system mouse (male, dd strain); details: in vivo, mouse, observed one week
Description: as §1

[8] = system: male mice of the dd strain; experiment: Analgesic activity by acetic acid writhing method; assay type: in vivo, mouse (male; details: mouse
Description: (I) Analgesic activity by acetic acid writhing method:
The experiment is carried out according to the method of Koster et al [Fed. Proc., 18, 412 (1959)].
as §2, with “The mice of a control group are not administered with the test compounds but with only the acetic acid solution in a similar manner to that described above.” left out, “When the writhing numbers of the test group decrease to below 50% of the corresponding numbers of the control group, the test compound is determined to be analgesically active.” left out

[9] = Acute toxicity (LD50) in rats; design: species or system rat (male, Wistar strain); details: in vivo, rat, observed one week
Description: as §1

[10] = oral administration, read-out: ED50
[11] = sc, subcutaneous administration, read-out: ED50
[12] = sc, subcutaneous administration

| SMILES | ED50 ([1]; sc, read-out: ED50) [mg/kg] | selectivity ratio ([2]; po, P.O. in mouse) | selectivity ratio ([2]; sc, S.C. in mouse) | ED50 [3, 10] [mg/kg] | ED50 [3, 11] [mg/kg] | ED50 [5, 10] [mg/kg] | ED50 [5, 11] [mg/kg] | selectivity ratio [6] | LD50 at 168 h [7, 12] [mg/kg] | LD50 at 168 h ([7]; oral administration) [mg/kg] | ED50 [8, 10] [mg/kg] | ED50 [8, 11] [mg/kg] | LD50 at 168 h [9, 12] [mg/kg] | LD50 at 168 h ([9]; oral administration) [mg/kg] | further results |
| --- | --- | --- | --- | --- | --- | --- | --- | --- | --- | --- | --- | --- | --- | --- | --- |
| C=C(C)CCN1CCC2(C)c3cc(O)ccc3CC1C2C (stereo not drawn) [Compound of formula (I), 3-(3-methyl-3-butenyl)-1,2,3,4,5,6-hexahydro-6,11-dimethyl-8-hydroxy-2,6-methano-3-benzazocine] | 0.76 | 14.3 | 889 | 35 | 0.38 | 29.3 | 0.51 | 161 | 80 | 205 | 14.3 | 0.09 | 61 | > 300 | analgesic activity [4]: unexpectedly a better analgesic activity than the known pentazocine |
| CC(C)=CCN1CCC2(C)c3cc(O)ccc3CC1C2C (stereo not drawn) [Pentazocine, 3-(3-methyl-2-butenyl)-1,2,3,4,5,6-hexahydro-6,11-dimethyl-8-hydroxy-2,6-methano-3-benzazocine] | > 40 | 3.7 | 40.6 | > 100 | 10.5 | > 40 | > 40 | 15.7 | 140 | 305 | 82 | 3.45 | 165 | > 400 | – |
| CN1CC[C@]23c4c5ccc(O)c4O[C@H]2[C@@H](O)C=C[C@H]3[C@H]1C5 [Morphine, morphine] | – | – | – | – | – | – | – | – | – | – | – | – | – | – | ED50 [1]: 5.2 mg/kg; ED50 ([3]; oral administration): 85 mg/kg; ED50 ([3]; subcutaneous administration): 4.8 mg/kg; ED50 ([5]; oral administration): 35.5 mg/kg; ED50 ([5]; subcutaneous administration): 3.5 mg/kg; ED50 ([8]; oral administration): 5.1 mg/kg; ED50 ([8]; subcutaneous administration): 0.56 mg/kg |
